{"source": "paper PMC4066452", "about": "(Archives of biochemistry and biophysics, 2014)", "target": "MtACS (Mycobacterium tuberculosis acetyl-CoA synthetase) (Mycobacterium tuberculosis, UniProt P9WQD1)", "sequence (P9WQD1 2-651)": "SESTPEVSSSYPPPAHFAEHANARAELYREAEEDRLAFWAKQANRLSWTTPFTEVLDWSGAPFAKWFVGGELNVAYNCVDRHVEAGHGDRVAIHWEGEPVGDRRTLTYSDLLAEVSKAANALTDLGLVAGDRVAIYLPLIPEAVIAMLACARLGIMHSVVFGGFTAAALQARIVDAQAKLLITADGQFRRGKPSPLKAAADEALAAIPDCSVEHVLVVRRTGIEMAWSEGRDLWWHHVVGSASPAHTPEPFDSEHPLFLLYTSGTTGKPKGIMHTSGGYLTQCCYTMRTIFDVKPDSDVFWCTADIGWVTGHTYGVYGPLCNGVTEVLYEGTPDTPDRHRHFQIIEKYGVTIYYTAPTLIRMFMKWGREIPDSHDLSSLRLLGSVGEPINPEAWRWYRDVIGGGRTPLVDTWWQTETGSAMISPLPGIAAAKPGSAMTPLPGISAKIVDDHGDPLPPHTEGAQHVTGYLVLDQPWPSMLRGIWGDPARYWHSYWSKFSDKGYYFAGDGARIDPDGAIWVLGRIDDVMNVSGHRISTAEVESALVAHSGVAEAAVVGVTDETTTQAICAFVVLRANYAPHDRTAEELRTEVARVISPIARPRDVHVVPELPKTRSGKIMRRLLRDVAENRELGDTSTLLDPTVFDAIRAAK", "test": "biochemical", "data": [{"molecule": "Nc1ncnc2c1ncn2[C@@H]1O[C@H](COP(=O)(O)CP(=O)(O)OP(=O)(O)O)[C@@H](O)[C@H]1O", "note": "[AMPCPP]", "values": [{"measurement": "Ki", "value": "5 ± 0.8", "unit": "mM"}]}]}
